Key:
T cells = assay: Th2 differentiation (IL-4 production by differentiated mouse spleen T cells, ELISA); type: cell-based; conditions: inhibition of Th2 differentiation (IL-4 production, ELISA), C57BL/6 mouse spleen T cells
Description: Measurement of Th2 Differentiation
T cells were prepared by removing nylon wool (Wako Pure Chemical Industries)-adhering cells from C57BL/6 mouse (Charles River Japan) spleen cells. Using a 96 well plate to which an anti-CD3ε antibody (10 μg/ml) (Sederlane) had been immobilized in advance, T cells (2×10^5 cells/0.2 ml) were inoculated under stimulation with anti-CD28 antibody (1 μg/ml) (Pharmingen), IL-2 (10 ng/ml) (Peprotech) and IL-4 (10 ng/ml) (Peprotech). After 2 days of the culturing, total volume of the cell suspension was diluted to 2 ml with a medium containing IL-2 (10 ng/ml) and IL-4 (10 ng/ml). The differentiation was induced by further carrying out the culturing for 3 days. By counting the cell density, the cells after differentiation were adjusted to 1×10^6 cells/ml and inoculated into a 96 well plate immobilized with the anti-CD3 ε antibody, in order to induce IL-4 production. The supernatant after 24 hours of the stimulation was recovered, and the IL-4 production was determined by an ELISA method. The antibody used in the ELISA was purchased from Pharmingen. Also, an HRPO-labeled streptoavidin (Amersham Pharmacia) was used in the detection of biotinylated antibody, and a peroxidase color developing reagent (Sumitomo Bakelite) was used in the HRPO color development. In the case of the evaluation of compounds, compound dilutions were added to the wells before the addition of T cells, at the time of the dilution 2 days later, compounds equivalent to the initial concentration were added. Also, regarding the dilution of compounds, dilution was carried out using 10% FBS-containing RPMI 1640 such that the final concentration of DMSO in which each compound was dissolved became 0.1% or less. Inhibitory activity of each tested compound was evaluated in which the IL-4 production when DMSO was added instead of the compound was regarded as 100%, and the IL-4 production when anti-CD28 antibody and IL-4 were not added as 0%.

STAT 6 = target: T1, STAT 6 (Mus musculus, UniProt P52633); assay: STAT 6-dependent reporter activity (IL-4-stimulated CI/FW4 luciferase reporter cell); type: cell-based, human
T1 construct: An STAT 6 reporter cell CI/FW4 was constructed by the above operation; endogenous in cells; host or cells: CI/FW4 (FW4 cell stably carrying the pGL2-CI/bs luciferase reporter)
T1 sequence (P52633 1-837): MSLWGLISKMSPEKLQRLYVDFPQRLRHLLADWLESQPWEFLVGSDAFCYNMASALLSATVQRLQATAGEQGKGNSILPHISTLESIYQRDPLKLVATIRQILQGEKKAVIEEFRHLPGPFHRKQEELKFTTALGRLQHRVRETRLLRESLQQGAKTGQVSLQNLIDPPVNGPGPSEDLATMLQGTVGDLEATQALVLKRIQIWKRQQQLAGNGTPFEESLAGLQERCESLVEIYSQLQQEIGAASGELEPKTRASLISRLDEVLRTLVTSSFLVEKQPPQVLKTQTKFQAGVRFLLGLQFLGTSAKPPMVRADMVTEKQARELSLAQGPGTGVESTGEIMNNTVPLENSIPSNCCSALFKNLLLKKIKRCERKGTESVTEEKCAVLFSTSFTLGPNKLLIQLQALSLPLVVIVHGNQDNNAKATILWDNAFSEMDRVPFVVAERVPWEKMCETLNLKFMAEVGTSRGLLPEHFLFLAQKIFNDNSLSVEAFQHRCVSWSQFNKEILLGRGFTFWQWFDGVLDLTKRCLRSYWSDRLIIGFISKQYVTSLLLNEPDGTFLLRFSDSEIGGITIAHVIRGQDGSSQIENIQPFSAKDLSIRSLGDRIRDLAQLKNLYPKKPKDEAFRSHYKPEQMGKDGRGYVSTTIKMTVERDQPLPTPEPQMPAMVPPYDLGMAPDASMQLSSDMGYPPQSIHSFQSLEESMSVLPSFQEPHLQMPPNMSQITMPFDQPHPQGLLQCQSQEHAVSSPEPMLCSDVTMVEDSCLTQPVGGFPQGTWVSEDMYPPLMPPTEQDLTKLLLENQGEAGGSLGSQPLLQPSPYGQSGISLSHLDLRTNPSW
Description: Measurement of STAT 6-Dependent Reporter Activity 1) Construction of STAT 6 Reactive Reporter Plasmid A STAT 6 reporter plasmid pGL2-CI was prepared by the following method. […] Also, […] sequence DNA molecules (SEQ ID NOs:3 and 4) contained in the adenovirus major late promoter were annealed and inserted into BglII and HindIII sites of the same vector. Thereafter, pGL2-CI/bs was constructed by inserting the blasticidin resistance gene of pUCSV-BD (Funakoshi) into BamHI site of the constructed pGL2-CI. 2) Construction of STAT 6 Reporter Cell Gene transfer of […] into a human IL-4 reactive cell FW4 cell (Mol. Cell. Biol., 14: 5433-5440) was carried out by the electroporation method (320 V, 960 μF/0.4 cm cuvette (Nippon Bio-Rad Laboratories)), and 6 μg/ml of blasticidin (Funakoshi) was added 40 hours thereafter to select a resistant cell. Confirmation of constant transfer of the reporter plasmid was carried out by detecting luciferase induce by IL-4 stimulation. An STAT 6 reporter cell CI/FW4 was constructed by the above operation. 3) STAT Reporter Assay Using CI/FW4 Cell Stimulation of the CI/FW4 cell (1×10^4 cells/0.1 ml) with 10 ng/ml of human IL-4 (Genzyme Techne) was carried out using a white 96 well plate (Nunc). In the case of the evaluation of compounds, compound dilutions were added to the wells before inoculating the cells into the 96 well plate. […] Thereafter, 50 μl of a luciferase substrate solution (10 mM Tris-HCl pH 7.8, 5 mM luciferin, 2 mM coenzyme A, 2 mM ATP, 0.5 mM MgCl2 and 2 mM Mg(OH)2) was added, followed by stirring for 1 minute. Then, the luciferase activity was measured using ML3000 luminometer (Dynatech Laboratories, Inc). Inhibitory activities of tested compounds were evaluated in which the luminescence intensity (relative light unit: […] The results are shown in the following Table 26.

[1] = inhibition ratio at 0.1 μM compound, IL-4-stimulated CI/FW4 cell, luciferase
[2] = inhibition ratio at 1 μM compound, IL-4-stimulated CI/FW4 cell, luciferase

| inhibition at 0.1 µM (STAT 6; [1]) | inhibition at 1 µM (STAT 6; [2]) | inhibition of STAT 6-dependent reporter activity (activity similar to the compounds of Table 26) (STAT 6; CI/FW4 cell, 10 ng/ml human IL-4, luciferase) | Structure (SMILES) | Inh (%) (T cells) | Inh (%) 0.1 μM (STAT 6; [1]) | Inh (%) 1 μM (STAT 6; [2]) |
| --- | --- | --- | --- | --- | --- | --- |
| 100% | 100% | – | NC(=O)c1cnc(Nc2ccc(N3CCOCC3)cc2)nc1NCc1ccccc1 [Example 3, 4-benzylamino-2-{[4-(morpholin-4-yl)phenyl]amino}pyrimidine-5-carboxamide] | 98% | – | – |
| – | – | – | COc1ccccc1CNc1nc(Nc2ccc(N3CCOCC3)cc2)ncc1C(N)=O [Example 35] | 94% | 95% | 100% |
| – | – | good activity | Cc1cccc(Nc2nc(NCCc3ccc(O)c(Cl)c3)ncc2C(N)=O)c1 [Production Example 99] | 85% | – | – |

Reference: patent US8012959B2, “Diaminopyrimidinecarboxamide derivative” (Astellas Pharma Inc., priority 2002, dated 2011)
